According to publication PMC8596838, “Xylose‐Configured Cyclophellitols as Selective Inhibitors for Glucocerebrosidase” (Chembiochem, 2021):

Target: T1, GBA2 E527G mutant and E527G/D667G double mutant (Homo sapiens, UniProt Q9HCG7, E527G)
T1 construct: expressed in transfected cells; host or cells: HEK293T
T1 sequence (Q9HCG7 1-927 E527G): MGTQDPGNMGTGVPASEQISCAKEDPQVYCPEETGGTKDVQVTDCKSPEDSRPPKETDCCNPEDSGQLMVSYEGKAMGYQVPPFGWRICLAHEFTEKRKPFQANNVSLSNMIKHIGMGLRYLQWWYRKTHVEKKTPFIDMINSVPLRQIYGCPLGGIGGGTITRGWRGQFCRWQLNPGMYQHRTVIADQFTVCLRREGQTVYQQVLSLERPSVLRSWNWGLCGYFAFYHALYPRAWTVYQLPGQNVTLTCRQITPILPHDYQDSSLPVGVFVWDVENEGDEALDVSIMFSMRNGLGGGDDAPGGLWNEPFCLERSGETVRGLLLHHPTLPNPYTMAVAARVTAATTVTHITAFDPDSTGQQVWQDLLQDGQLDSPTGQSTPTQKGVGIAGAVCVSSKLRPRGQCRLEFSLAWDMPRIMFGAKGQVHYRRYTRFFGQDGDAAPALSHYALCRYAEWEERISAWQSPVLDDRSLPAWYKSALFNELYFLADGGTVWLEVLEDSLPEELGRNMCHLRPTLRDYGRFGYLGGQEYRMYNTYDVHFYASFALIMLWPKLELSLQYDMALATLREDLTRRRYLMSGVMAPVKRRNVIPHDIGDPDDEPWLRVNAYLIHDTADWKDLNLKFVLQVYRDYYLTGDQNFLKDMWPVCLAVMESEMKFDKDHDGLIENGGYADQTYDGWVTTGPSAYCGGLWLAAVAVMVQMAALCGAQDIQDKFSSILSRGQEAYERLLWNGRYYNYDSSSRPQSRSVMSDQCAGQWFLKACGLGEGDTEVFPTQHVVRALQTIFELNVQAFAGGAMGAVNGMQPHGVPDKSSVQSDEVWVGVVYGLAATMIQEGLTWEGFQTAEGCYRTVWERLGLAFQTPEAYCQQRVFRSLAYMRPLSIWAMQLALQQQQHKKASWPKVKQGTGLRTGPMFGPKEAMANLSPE
Assay: ABP labeling of mutant GBA2 expressed in HEK293T cells
Format: biochemical
Details: HEK293T cells expressing mutant GBA2
Method: Figure 4 (A) ABP labeling of β‐D‐glucosidases. A lysate of HEK293T cells expressing human GBA, GBA2 and GBA3 was incubated with indicated ABPs (6, 9 or 10) for 30 min at pH 6.0. Fluorescently labeled proteins were visualized after SDS‐PAGE. (B) Labeling with ABP 6 of wild type or mutant GBA2 (E527G nucleophile mutation and D667G acid/base mutation) expressed in HEK293T cells.
Cell culture: HEK293T (CRL‐3216) were purchased from ATCC (Manassas, VA, USA). HEK293T cells were cultured in DMEM medium (Sigma‐Aldrich), supplied with 10 % (v/v) FCS, 0.1 % (w/v) penicillin/streptomycin and 1 % (v/v) Glutamax, under 7 % CO2. […] First the GBA Knockout cells were generated using the annealed oligonucleotides (top strand) 5’‐CACCGCGCTATGAGAGTACACGCAG‐3’ and (bottom strand 5’‐AAACCTGCGTGTACTCTCATAGCGC‐3’ and after ligation in the BbsI site of the px330 and subsequent transfection into the HEK293T cells. Single cells were created and the different clones were analyzed for lack of expression of GBA with enzyme activity assays and ABPs and subsequent genomic sequence analysis. The true GBA knockout cells were next used to create the GBA/GBA2 double knockout cells (using the px330 and the following annealed and ligated oligonucleotides (top strand 5‐CACCGGACGGACTGCTGCAATCCGG‐3’ and bottom strand 5’‐AAACCCGGATTGCAGCAGTCCGTCC‐3’. […]

`CN1/C(=C/C=C/C=C/C2=[N+](CCCCCC(=O)NCc3cn(CCCCCCCCN4[C@H]5[C@H](O)[C@@H](O)[C@H](O)C[C@H]54)nn3)c3ccccc3C2(C)C)C(C)(C)c2ccccc21` (stereo partly shown) [ABP 6] was tested, and the “labeling of GBA2 E527G mutant and E527G/D667G double mutant” value was “no longer labeled”.
